Source: paper PMC6298744 (Biochemical pharmacology, 2018)
Like-named read-outs stand apart in the source and are kept apart here.

What was measured:
[1] = target: T1, hDAT (Homo sapiens, UniProt Q01959); assay: Release of preloaded [^3H]DA from HEK-hDAT cells; assay type: cell-based; conditions: for % maximum release, hDAT [^3H]DA: relative to maximum release induced by METH (1–10 μM)
[2] = target: T2, 5-HT2A receptor (Homo sapiens, UniProt P28223); assay: cell-based; assay type: cell-based; conditions: for Emax: read-out: % maximum stimulation, 5-HT2A stimulation of IP-1 formation
[3] = target: T3, hNET (Homo sapiens, UniProt P23975); assay: biochemical; assay type: binding
[4] = target: T1, hDAT; assay: Inhibition of [^125I]RTI-55 binding to hDAT
[5] = target: T4, hSERT (Homo sapiens, UniProt P31645); assay: Release of preloaded [^3H]5-HT from HEK-hSERT cells; assay type: cell-based; conditions: for % maximum release, hSERT [^3H]5-HT: relative to maximum release induced by METH (0.3–1 mM)
[6] = target: T5, 5-HT2B receptor (Homo sapiens, UniProt P41595); assay: 5-HT2B receptor inositol monophosphate; assay type: cell-based; conditions: for % maximum stimulation, 5-HT2B stimulation of IP-1 formation: normalized to the maximal stimulation by 5-HT; for Emax: read-out: % maximum stimulation, 5-HT2B stimulation of IP-1 formation
[7] = target: T6, human 5-HT1A receptor (Homo sapiens, UniProt P08908); assay: 5-HT1A receptor [^3H]8-OH-DPAT radioligand binding
T6 sequence (P08908 1-422): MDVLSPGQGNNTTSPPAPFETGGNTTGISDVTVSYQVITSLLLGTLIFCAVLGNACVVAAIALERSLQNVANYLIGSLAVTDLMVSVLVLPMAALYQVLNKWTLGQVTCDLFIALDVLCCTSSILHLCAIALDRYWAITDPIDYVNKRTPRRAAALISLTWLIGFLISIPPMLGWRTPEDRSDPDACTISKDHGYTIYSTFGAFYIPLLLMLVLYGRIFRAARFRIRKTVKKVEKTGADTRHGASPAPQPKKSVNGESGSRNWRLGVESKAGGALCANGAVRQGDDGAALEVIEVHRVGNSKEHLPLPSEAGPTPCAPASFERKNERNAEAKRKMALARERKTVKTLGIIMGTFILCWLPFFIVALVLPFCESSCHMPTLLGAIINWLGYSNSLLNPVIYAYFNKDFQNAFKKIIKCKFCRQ

[8] = target: T4, hSERT; assay: Inhibition of [^125I]RTI-55 binding to hSERT
[9] = target: T2, 5-HT2A receptor; assay: biochemical; assay type: binding; conditions: for Selectivity (binding ratios) 5-HT2A : 5-HT1A / Selectivity (binding ratios) 5-HT2A : 5-HT2B / Selectivity (binding ratios) 5-HT2A : 5-HT2C: ratio of Ki values
[10] = target: T3, hNET; assay: Release of preloaded [^3H]NE from HEK-hNET cells; assay type: cell-based; conditions: for % maximum release, hNET [^3H]NE: relative to maximum release induced by METH (0.3–1 μM)
[11] = target: T6, human 5-HT1A receptor; assay: 5-HT1A receptor [^35S]GTPγS binding stimulation; assay type: biochemical; conditions: for Emax: read-out: % maximum stimulation, 5-HT1A stimulation of [^35S]GTPγS binding
[12] = target: T7, 5-HT2C receptor (Homo sapiens, UniProt P28335); assay: cell-based; conditions: for Emax: read-out: % maximum stimulation, 5-HT2C stimulation of IP-1 formation
T7 sequence (P28335 33-458): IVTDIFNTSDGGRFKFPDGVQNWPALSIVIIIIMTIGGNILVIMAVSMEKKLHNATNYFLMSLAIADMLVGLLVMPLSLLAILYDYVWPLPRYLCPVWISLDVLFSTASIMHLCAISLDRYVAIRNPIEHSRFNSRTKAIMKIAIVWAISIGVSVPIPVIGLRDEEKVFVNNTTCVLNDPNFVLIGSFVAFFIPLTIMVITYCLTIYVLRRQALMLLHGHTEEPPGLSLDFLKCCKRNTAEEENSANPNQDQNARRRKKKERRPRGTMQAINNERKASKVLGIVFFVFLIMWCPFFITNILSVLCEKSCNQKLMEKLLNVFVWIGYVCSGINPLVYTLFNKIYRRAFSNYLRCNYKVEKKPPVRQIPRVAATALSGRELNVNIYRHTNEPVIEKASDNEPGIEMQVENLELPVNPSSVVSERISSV

[13] = target: T1, hDAT; assay: Inhibition of [^3H]DA uptake by HEK-hDAT cells; assay type: cell-based
[14] = target: T4, hSERT; assay: Inhibition of [^3H]5-HT uptake by HEK-hSERT cells; assay type: cell-based
[15] = target: T5, 5-HT2B receptor; assay: 5-HT2B receptor [^3H]5-HT binding
[16] = target: T3, hNET; assay: cell-based
[17] = read-out: Drug-induced release of [^3H]neurotransmitter EC50, hDAT [^3H]DA, mean ± sem, HEK-hDAT
[18] = read-out: Inhibition of [^125I]RTI-55 binding Ki, hNET, mean ± sem, HEK-hNET
[19] = read-out: Inhibition of [^125I]RTI-55 binding Ki, hDAT, mean ± sem, HEK-hDAT
[20] = read-out: Drug-induced release of [^3H]neurotransmitter EC50, hSERT [^3H]5-HT, mean ± sem, HEK-hSERT
[21] = read-out: Inhibition of [^125I]RTI-55 binding Ki, hSERT, mean ± sem, HEK-hSERT
[22] = read-out: Drug-induced release of [^3H]neurotransmitter EC50, hNET [^3H]NE, mean ± sem, HEK-hNET
[23] = EC50, 5-HT2A stimulation of IP-1 formation, mean ± sem

T4 sequence (P31645 whole entry): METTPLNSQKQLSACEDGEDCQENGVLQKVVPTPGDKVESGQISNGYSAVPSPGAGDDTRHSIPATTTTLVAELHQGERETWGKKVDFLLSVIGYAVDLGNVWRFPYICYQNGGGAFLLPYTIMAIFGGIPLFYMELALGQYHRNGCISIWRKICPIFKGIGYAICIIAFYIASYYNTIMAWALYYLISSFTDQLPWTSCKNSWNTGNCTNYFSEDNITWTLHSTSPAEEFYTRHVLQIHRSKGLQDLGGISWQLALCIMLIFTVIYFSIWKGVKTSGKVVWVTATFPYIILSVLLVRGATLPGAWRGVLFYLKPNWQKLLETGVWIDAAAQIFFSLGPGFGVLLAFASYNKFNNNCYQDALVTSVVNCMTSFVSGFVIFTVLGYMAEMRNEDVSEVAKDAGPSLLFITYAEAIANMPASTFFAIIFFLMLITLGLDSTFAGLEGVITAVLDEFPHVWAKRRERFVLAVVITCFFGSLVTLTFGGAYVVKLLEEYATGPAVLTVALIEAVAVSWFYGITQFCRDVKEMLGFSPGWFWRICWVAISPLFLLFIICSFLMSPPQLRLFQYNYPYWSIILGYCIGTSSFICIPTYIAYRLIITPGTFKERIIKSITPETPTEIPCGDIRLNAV
T5 sequence (P41595 whole entry): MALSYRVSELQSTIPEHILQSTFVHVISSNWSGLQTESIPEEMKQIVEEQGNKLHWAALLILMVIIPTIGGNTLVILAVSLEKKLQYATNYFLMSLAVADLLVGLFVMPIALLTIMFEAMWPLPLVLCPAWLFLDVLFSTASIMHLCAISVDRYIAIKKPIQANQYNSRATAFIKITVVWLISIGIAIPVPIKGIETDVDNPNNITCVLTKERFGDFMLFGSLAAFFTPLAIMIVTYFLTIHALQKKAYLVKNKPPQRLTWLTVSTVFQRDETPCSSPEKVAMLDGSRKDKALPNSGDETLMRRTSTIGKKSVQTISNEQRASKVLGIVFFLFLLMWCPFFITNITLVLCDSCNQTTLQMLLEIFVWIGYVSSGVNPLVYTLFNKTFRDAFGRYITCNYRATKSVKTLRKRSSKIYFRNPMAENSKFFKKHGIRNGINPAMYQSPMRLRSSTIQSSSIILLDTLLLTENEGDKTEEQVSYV
T3 sequence (P23975 whole entry): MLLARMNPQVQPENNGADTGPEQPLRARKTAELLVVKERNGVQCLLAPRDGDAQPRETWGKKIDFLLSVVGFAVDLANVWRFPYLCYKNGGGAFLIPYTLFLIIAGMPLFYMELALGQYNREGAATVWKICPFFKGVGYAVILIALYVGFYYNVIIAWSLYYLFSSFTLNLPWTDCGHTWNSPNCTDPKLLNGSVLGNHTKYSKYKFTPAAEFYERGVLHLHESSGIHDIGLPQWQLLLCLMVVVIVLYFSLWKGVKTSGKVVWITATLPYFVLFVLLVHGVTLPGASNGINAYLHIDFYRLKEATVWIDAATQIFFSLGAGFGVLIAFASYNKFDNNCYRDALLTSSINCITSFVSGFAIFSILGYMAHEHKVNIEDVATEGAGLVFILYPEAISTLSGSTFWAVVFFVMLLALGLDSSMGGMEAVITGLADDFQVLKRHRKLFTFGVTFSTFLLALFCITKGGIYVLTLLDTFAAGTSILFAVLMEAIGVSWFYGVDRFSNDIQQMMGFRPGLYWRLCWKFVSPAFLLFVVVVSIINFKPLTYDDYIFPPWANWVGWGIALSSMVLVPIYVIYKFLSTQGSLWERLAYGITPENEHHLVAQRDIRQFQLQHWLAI
T2 sequence (P28223 whole entry): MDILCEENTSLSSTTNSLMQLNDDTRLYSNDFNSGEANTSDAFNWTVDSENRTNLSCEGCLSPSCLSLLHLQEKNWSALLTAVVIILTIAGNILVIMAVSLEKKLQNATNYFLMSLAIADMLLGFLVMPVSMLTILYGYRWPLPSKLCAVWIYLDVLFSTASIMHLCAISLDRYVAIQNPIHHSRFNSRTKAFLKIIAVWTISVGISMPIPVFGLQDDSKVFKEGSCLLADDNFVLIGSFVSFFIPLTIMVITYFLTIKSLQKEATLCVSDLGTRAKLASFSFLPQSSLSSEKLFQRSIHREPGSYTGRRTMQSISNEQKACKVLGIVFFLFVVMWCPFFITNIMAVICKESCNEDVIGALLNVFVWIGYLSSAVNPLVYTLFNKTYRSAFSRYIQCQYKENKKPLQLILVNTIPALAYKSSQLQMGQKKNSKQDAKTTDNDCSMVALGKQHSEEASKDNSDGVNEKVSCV
T1 sequence (Q01959 whole entry): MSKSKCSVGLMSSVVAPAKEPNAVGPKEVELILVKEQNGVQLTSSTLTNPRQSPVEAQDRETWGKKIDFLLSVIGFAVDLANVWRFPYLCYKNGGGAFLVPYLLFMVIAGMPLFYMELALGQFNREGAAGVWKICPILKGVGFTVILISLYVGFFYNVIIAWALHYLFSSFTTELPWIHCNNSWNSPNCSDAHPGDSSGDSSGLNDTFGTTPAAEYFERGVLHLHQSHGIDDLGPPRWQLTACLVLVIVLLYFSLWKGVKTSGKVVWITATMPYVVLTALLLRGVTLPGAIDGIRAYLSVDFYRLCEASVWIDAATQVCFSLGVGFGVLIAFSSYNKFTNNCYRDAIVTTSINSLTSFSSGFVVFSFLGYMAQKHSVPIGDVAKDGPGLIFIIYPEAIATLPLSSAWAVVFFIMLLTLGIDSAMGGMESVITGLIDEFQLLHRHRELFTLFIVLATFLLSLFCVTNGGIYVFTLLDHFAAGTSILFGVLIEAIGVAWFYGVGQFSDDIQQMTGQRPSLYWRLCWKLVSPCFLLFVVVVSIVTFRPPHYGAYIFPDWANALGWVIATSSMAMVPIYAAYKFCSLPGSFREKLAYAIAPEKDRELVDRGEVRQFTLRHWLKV

## COc1cc(CC(C)N)c(OC)cc1C (single isomer, unassigned; (-)) [DOM, (-)2,5-dimethoxy-4-methylamphetamine, reference compound]
[1]; [17]
  EC50: > 100000 nM
[1]
  % maximum release, hDAT [^3H]DA: −0.20 ± 0.16%
[2]
  % maximum stimulation, 5-HT2A stimulation of IP-1 formation: 39.9 ± 5.4 (3) 94.6 ± 4.1%
[2]; read-out: EC50, 5-HT2A stimulation of IP-1 formation
  EC50: 39.9 nM
[3]; [18]
  Ki: > 100000 nM
[4]; [19]
  Ki: > 100000 nM
[5]; [20]
  EC50: > 100000 nM
[5]
  % maximum release, hSERT [^3H]5-HT: 2.9 ± 3.4%
[6]
  % maximum stimulation, 5-HT2B stimulation of IP-1 formation: 96.2 ± 3.2%
[6]; read-out: EC50, 5-HT2B stimulation of IP-1 formation, mean ± sem
  EC50: 145 ± 47 nM
[7]; read-out: Inhibition of radioligand binding Ki, 5-HT1A [^3H]8OH-DPAT, mean ± sem, recombinant human 5-HT1A in HEK cells, agonist radioligand
  Ki: 3660 ± 470 nM
[8]; [21]
  Ki: > 100000 nM
[9]; read-out: Inhibition of radioligand binding Ki, 5-HT2A [^125I]DOI
  Ki: 18.3 nM
[10]; [22]
  EC50: > 42000 nM
[10]
  % maximum release, hNET [^3H]NE: 25.5 ± 2.0%
[11]; normalized to the maximal stimulation by 5-HT
  % maximum stimulation, 5-HT1A stimulation of [^35S]GTPγS binding: 74 ± 25%
[11]; read-out: EC50, 5-HT1A stimulation of [^35S]GTPγS binding, mean ± sem
  EC50: 12800 ± 4700 nM

## CCc1cc(OC)c(CCNCc2ccccc2OC)cc1OC [25E-NBOMe, 2-(4-ethyl-2,5-dimethoxyphenyl)-N-(2-methoxybenzyl)ethanamine]
[1]
  EC50: > 85000 nM
  % maximum release, hDAT [^3H]DA: 5.8 ± 6.4%
[12]
  EC50: 0.95 ± 0.18 nM
  Emax: 91.8%
[13]
  IC50: 34000 ± 10000 nM
[2]; [23]
  EC50: 0.5 ± 0.14 nM
[2]; ratio of EC50 values
  Selectivity (functional ratios) 5-HT2A: 5-HT1A: 27,000
  Selectivity (functional ratios) 5-HT2A: 5-HT2B: 47
  Selectivity (functional ratios) 5-HT2A: 5-HT2C: 1.9
[2]
  Emax: 87.1%
[3]
  Ki: 5400 ± 1000 nM
[4]
  Ki: 19600 ± 1200 nM
[5]
  EC50: > 100000 nM
  % maximum release, hSERT [^3H]5-HT: 0.21 ± 0.77%
[14]
  IC50: 1440 ± 140 nM
[15]
  Ki: 1.11 ± 0.32 nM
[6]
  EC50: 23.5 ± 6 nM
  Emax: 49.4%
[16]
  IC50: 2310 ± 700 nM
[7]
  Ki: 1680 ± 350 nM
[8]
  Ki: 1590 ± 120 nM
[9]
  Ki: 0.127 ± 0.019 nM
  Selectivity (binding ratios) 5-HT2A : 5-HT1A: 13200
  Selectivity (binding ratios) 5-HT2A : 5-HT2B: 8.7
  Selectivity (binding ratios) 5-HT2A : 5-HT2C: 2.4
[10]
  EC50: > 66000 nM
  % maximum release, hNET [^3H]NE: 17.1 ± 5.9%
[11]
  EC50: 13700 ± 5600 nM
  Emax: 38%

## CCN(CC)C(=O)[C@@H]1C=C2c3cccc4[nH]cc(c34)C[C@H]2N(C)C1 [LSD, (+)lysergic acid diethylamide, reference compound]
[1]; [17]
  EC50: > 54000 nM
[1]
  % maximum release, hDAT [^3H]DA: 7.4 ± 4.7%
[2]
  % maximum stimulation, 5-HT2A stimulation of IP-1 formation: 0.706 ± 0.065 (3) 64.5 ± 6.3%
[3]; [18]
  Ki: 76900 ± 8500 nM
[4]; [19]
  Ki: > 100000 nM
[5]; [20]
  EC50: > 100000 nM
[5]
  % maximum release, hSERT [^3H]5-HT: −0.59 ± 0.55%
[6]
  % maximum stimulation, 5-HT2B stimulation of IP-1 formation: 23.3 ± 4.9%
[8]; [21]
  Ki: 62900 ± 5000 nM
[10]; [22]
  EC50: > 91000 nM
[10]
  % maximum release, hNET [^3H]NE: 35.7 ± 4.2%

## COc1cc(CCNCc2ccccc2O)c(OC)cc1I [25I-NBOH, 2-(((4-iodo-2,5-dimethoxyphenethyl)amino)methyl)phenol]
[1]
  EC50: > 100000 nM
  % maximum release, hDAT [^3H]DA: −0.56 ± 0.35%
[12]
  EC50: 2.38 ± 0.72 nM
  Emax: 94%
[13]
  IC50: 30700 ± 5000 nM
[2]; [23]
  EC50: 0.76 ± 0.26 nM
[2]; ratio of EC50 values
  Selectivity (functional ratios) 5-HT2A: 5-HT2B: 146
  Selectivity (functional ratios) 5-HT2A: 5-HT2C: 3.1
[2]
  Emax: 87.5%
[3]
  Ki: 4060 ± 650 nM
[4]
  Ki: 8500 ± 380 nM
[5]
  EC50: > 100000 nM
  % maximum release, hSERT [^3H]5-HT: −0.27 ± 0.40%
[14]
  IC50: 1720 ± 250 nM
[15]
  Ki: 1.91 ± 0.48 nM
[6]
  EC50: 111 ± 13 nM
  Emax: 21.3%
[16]
  IC50: 629 ± 93 nM
[7]
  Ki: 2220 ± 590 nM
[8]
  Ki: 1220 ± 210 nM
[9]
  Ki: 0.169 ± 0.013 nM
  Selectivity (binding ratios) 5-HT2A : 5-HT1A: 13100
  Selectivity (binding ratios) 5-HT2A : 5-HT2B: 11
  Selectivity (binding ratios) 5-HT2A : 5-HT2C: 6.1
[10]
  EC50: > 100000 nM
  % maximum release, hNET [^3H]NE: 16 ± 16%
[11]
  EC50: 37000 ± 13000 nM
  Emax: 74%

## CN[C@@H](C)Cc1ccccc1 [METH, (S+)methamphetamine, reference compound]
[1]; [17]
  EC50: 430 ± 150 nM
[1]
  % maximum release, hDAT [^3H]DA: 104.1 ± 1.3%
[5]; [20]
  EC50: 27500 ± 7000 nM
[5]
  % maximum release, hSERT [^3H]5-HT: 104.9 ± 6.8%
[10]; [22]
  EC50: 152 ± 56 nM
[10]
  % maximum release, hNET [^3H]NE: 106.7 ± 3.3%
